Reference: patent US10683278B2 (JINAN UNIVERSITY, priority 2015, dated 2020)
Like-named read-outs stand apart in the source and are kept apart here.

Tests used:
[1] = target: T1, FLT-3 kinase domain recombinant protein (Homo sapiens, UniProt P36888); assay: Inhibition rate on FLT3 kinase (ELISA); assay type: biochemical; conditions: two values per compound; for inhibition at 0.01 µM / inhibition at 0.1 µM / inhibition at 1 µM: read-out: Inhibition rate (%) against receptor tyrosine kinase FLT-3
T1 construct: 50 μL FLT-3 kinase domain recombinant protein diluted with reaction buffer to initiate the reaction
T1 sequence (P36888 610-943 limits assumed): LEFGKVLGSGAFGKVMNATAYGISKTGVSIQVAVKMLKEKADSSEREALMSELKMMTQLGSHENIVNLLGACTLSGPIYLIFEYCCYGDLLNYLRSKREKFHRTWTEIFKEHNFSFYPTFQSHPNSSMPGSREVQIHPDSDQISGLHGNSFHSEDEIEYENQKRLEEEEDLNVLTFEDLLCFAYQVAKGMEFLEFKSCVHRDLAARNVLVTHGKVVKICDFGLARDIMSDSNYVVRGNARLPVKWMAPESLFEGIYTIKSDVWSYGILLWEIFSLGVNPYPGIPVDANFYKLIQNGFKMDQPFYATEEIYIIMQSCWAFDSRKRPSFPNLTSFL
Method: Conventional enzyme-linked immunosorbent assay (ELISA) method is used, and the specific steps are as follows
12,000 g of compounds were centrifuged for 5 min, DMSO was added to make a 10^−2M stock solution, vortexed uniformly and sonicated for 10 min for standby application, and stored at −40° C. The compounds were diluted from the stock solution with DMSO to 100 times the concentration to be tested (concentration of DMSO in the system being 1%) during the test.
1. The enzyme reaction substrate Poly (Glu, Tyr) 4:1 was diluted to 20 μg/mL with potassium-free PBS (10 mM sodium phosphate buffer, 150 mM NaCl, pH 7.2-7.4), the ELISA plate was coated with same in 125 μL/well, and reacted at 37° C. for 12-16 hours, the liquid in wells was discarded, the plate was washed three times, for 5 minutes each time, with T-PBS (potassium-free PBS with 0.1% Tween-20, 200 μL/well), and the ELISA plate was dried in an oven at 37° C. for 1-2 hours.
2. To each well were added 49 μL of ATP solution diluted with reaction buffer (50 mM HEPES pH 7.4, 50 mM MgCl2, 0.5 mM MnCl2, 0.2 mM Na3VO4, 1 mM DTT), 1 μL of compounds to be tested, and 50 μL FLT-3 kinase domain recombinant protein diluted with reaction buffer to initiate the reaction (two ATP-free control wells are required for each experiment). Subject to a shaker (100 rpm) at 37° C. and reacted for 1 hour. The liquid in wells was discarded, and the plate was washed three times with T-PBS.
(§1) 3. Antibody PY99 diluent (the antibody was diluted in 1:500 with T-PBS which contains 5 mg/mL BSA) was added in 100 μL/well, subjected same to a shaker at 37° C. and reacted for 0.5 hour. The liquid in wells was discarded, and the plate was washed three times with T-PBS.
as §1, with “4. Horseradish peroxidase labeled goat anti-mouse secondary antibody” for “3. Antibody PY99”, “1:2000” for “1:500”, “mg/ml” for “mg/mL”
5. 2 mg/ml of OPD developing solution (diluted with 0.1 M citric acid-sodium citrate buffer which contains 0.03% H2O2 (pH=5.4)) was added in 100 μL/well, and reacted at 25° C. in the dark for 1-10 minutes.
6. 2 M H2SO4 was added in 50 μL/well to stop the reaction, and the reading from the wavelength-adjustable microwell plate ELIASA VERSAmax was performed with a wavelength of 490 nm.

[2] = In vivo pharmacokinetic and bioavailability experiments of rats; design: species or system SD rats; conditions: Sprague-Dawley, rat, plasma; for Cmax: read-out: Cmax
Method: Pharmacokinetic and bioavailability experiments of rats. SD rats were administered orally (25 mg/kg) and intravenously (2.5 to 5 mg/kg) at a single dose. Animal blood samples were taken at appropriate time points after administration, heparin was added as anticoagulant, and same were centrifuged at 8000 rpm/min for 6 minutes, the supernatant was then taken and stored at −20° C. for HPLC-MS analysis. The proteins in blood samples were precipitated with acetonitrile at 12000 rpm for 10 min, and the supernatant was used for HPCL-MS analysis. Data were fit using DAS2.0 to obtain compartmental model and non-compartmental model parameters, respectively. The oral bioavailability of each compound was calculated according to AUC data.

AXL kinase = target: T2, AXL kinase (Homo sapiens, UniProt P30530); assay: IC50 test on AXL kinase (Z′-LYTE FRET kinase activity detection); assay type: biochemical; conditions: for IC50: Z′-LYTE FRET peptide assay, 1 h reaction
T2 construct: purchased Invitrogen PV4803
T2 sequence (P30530 26-894): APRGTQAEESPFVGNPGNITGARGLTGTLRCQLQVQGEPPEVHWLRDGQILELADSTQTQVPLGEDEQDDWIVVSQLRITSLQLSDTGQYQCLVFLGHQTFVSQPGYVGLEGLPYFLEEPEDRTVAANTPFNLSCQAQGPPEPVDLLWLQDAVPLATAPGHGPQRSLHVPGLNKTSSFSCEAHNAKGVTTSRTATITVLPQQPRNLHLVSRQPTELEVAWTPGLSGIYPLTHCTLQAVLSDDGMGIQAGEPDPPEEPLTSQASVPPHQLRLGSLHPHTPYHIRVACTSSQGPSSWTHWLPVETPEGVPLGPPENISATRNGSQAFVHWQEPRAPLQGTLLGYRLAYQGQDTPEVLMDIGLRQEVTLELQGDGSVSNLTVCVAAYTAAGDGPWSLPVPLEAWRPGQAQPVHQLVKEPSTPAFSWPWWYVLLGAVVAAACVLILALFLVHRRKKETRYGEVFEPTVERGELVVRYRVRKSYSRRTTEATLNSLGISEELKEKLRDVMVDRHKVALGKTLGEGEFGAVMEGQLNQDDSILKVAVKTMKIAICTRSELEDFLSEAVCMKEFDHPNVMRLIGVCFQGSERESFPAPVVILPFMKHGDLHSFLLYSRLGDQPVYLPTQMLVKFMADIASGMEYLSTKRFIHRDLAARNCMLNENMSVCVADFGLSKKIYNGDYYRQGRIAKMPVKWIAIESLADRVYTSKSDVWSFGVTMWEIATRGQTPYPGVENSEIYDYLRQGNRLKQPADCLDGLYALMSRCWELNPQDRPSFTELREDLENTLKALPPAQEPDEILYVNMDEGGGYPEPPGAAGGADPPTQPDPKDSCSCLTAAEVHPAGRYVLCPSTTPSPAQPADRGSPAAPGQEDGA
Summary of the method: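 Z′-LYTE FRET readout: after 1 h kinase reaction (AXL, Tyr 2 peptide, ATP, compound dilutions), a 1 h protease step cuts unphosphorylated substrate. Excitation at 400 nm, signals at 445 nm and 520 nm used to derive IC50.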

[3] = SD rats, Po, 25 mg/kg single dose
[4] = SD rats, iv, 5 mg/kg single dose

SMILES	Inhibition rate (%) against receptor tyrosine kinase FLT-3 ([1]; compound 10 nM, 0.01 µM) [%]	inhibition at 0.01 µM ([1]; compound 10 nM) [%]	Inhibition rate (%) against receptor tyrosine kinase FLT-3 ([1]; compound 100 nM, 0.1 µM) [%]	inhibition at 0.1 µM ([1]; compound 100 nM) [%]	Inhibition rate (%) against receptor tyrosine kinase FLT-3 ([1]; compound 1000 nM, 1 µM) [%]	inhibition at 1 µM ([1]; compound 1000 nM) [%]	bioavailability ([2]; po, 25 mg/kg, read-out: F (oral bioavailability)) [%]	AUC(0-inf) [2, 3] [ng·h/mL]	AUC(0-t) [2, 3] [ng·h/mL]	half-life [2, 3] [h]	Cmax [2, 3] [ng/mL]	AUC(0-inf) [2, 4] [ng·h/mL]	AUC(0-t) [2, 4] [ng·h/mL]	clearance [2, 4] [mL/min/kg]	half-life [2, 4] [h]	Cmax [2, 4] [ng/mL]	IC50 (AXL kinase) [nM]	inhibitory activity on AXL kinase (AXL kinase; competitive experiment with ATP, in words)
COc1cc2ncnc(Oc3ccc(NC(=O)c4cn(-c5ccc(F)cc5)c5cc(N6CCNCC6)c(F)cc5c4=O)cc3F)c2cc1OC [TL4830042, N-(4-(6,7-dimethoxyquinazolin-4-yloxy)-3-fluorophenyl)-6-fluoro-1-(4-fluorophenyl)-4-oxo-7-(piperazin-1-yl)-1,4-dihydroquinoline-3-carboxamide]	40.0	52.3	44.5	53.8	87.0	92.3	0.2	151	98.9	14.5	7.15	15200	9780	5.83	15.8	885	38	
CCc1ccc2c(c1)c(=O)c(C(=O)Nc1ccc(Oc3ncnc4[nH]cc(-c5ccccc5)c34)c(C)c1)c(C)n2C [TL4830016, 6-ethyl-12-dimethyl-N-(3-methyl-4-(5-phenyl-7H-pyrrolo[2,3-d]pyrimidin-4-yloxy)phenyl)-4-oxo-1,4-dihydroquinoline-3-carboxamide]	66.5	50.2	66.1	58.3	70.1	67.1											1120	
Cc1c(C(=O)Nc2ccc(Oc3ncnc4[nH]cc(-c5ccccc5)c34)c(F)c2)c(=O)c2cc(C(F)(F)F)ccc2n1C [TL50121, N-(3-fluoro-4-((5-phenyl-7H-pyrrolo[2,3-d]pyrimidin-4-yl)oxy)phenyl)-1,2-dimethyl-4-oxo-6-(trifluoromethyl)-1,4-dihydroquinoline-3-carboxamide]	61.6	58.2	63.3	66.7	77.6	84.4											153	
Cc1c(C(=O)Nc2ccc(Oc3ncnc4[nH]cc(-c5ccccc5)c34)c(F)c2)c(=O)c2cc(OC(F)(F)F)ccc2n1C [TL4800117, N-(3-fluoro-4-((5-phenyl-7H-pyrrolo[2,3-d]pyrimidin-4-yl)oxy)phenyl)-1,2-dimethyl-4-oxo-6-(trifluoromethoxy)-1,4-dihydroquinoline-3-carboxamide]	61.5	59.5	70.2	76.3	74.1	83.8											75	
Cc1c(C(=O)Nc2ccc(Oc3ncnc4[nH]cc(-c5ccccc5)c34)c(F)c2)c(=O)c2cc(F)ccc2n1C [TL50087, 6-fluoro-N-(3-fluoro-4-(5-phenyl-7H-pyrrolo[2,3-d]pyrimidin-4-yloxy)phenyl)-1,2-dimethyl-4-oxo-1,4-hydroquinoline-3-carboxamide]	41.8	46.1	45.8	47.4	67.2	84											> 10000	

Results, then the compound that gave them:

Inhibition rate (%) against receptor tyrosine kinase FLT-3 ([1]; compound 10 nM, 0.01 µM) [%]	inhibition at 0.01 µM ([1]; compound 10 nM) [%]	Inhibition rate (%) against receptor tyrosine kinase FLT-3 ([1]; compound 100 nM, 0.1 µM) [%]	inhibition at 0.1 µM ([1]; compound 100 nM) [%]	Inhibition rate (%) against receptor tyrosine kinase FLT-3 ([1]; compound 1000 nM, 1 µM) [%]	inhibition at 1 µM ([1]; compound 1000 nM) [%]	bioavailability ([2]; po, 25 mg/kg, read-out: F (oral bioavailability)) [%]	AUC(0-inf) [2, 3] [ng·h/mL]	AUC(0-t) [2, 3] [ng·h/mL]	half-life [2, 3] [h]	Cmax [2, 3] [ng/mL]	AUC(0-inf) [2, 4] [ng·h/mL]	AUC(0-t) [2, 4] [ng·h/mL]	clearance [2, 4] [mL/min/kg]	half-life [2, 4] [h]	Cmax [2, 4] [ng/mL]	IC50 (AXL kinase) [nM]	inhibitory activity on AXL kinase (AXL kinase; competitive experiment with ATP, in words)	SMILES
49.2	48.5	51.8	50.3	81.2	83.5											20		COc1cc2ncnc(Oc3ccc(NC(=O)c4cn(C5CC5)c5cc(N6CCNCC6)c(F)cc5c4=O)cc3F)c2cc1OC [GDL5000110, 1-cyclopropyl-N-(4-(6,7-dimethoxyquinazolin-4-yloxy)-3-fluorophenyl)-6-fluoro-4-oxo-7-(piperazin-1-yl)-1,4-dihydroquinoline-3-carboxamide]
59.8	65.3	66.5	74.3	91.6	100											16	strong inhibitory activity	CCc1ccc2c(c1)c(=O)c(C(=O)Nc1ccc(Oc3ncnc4[nH]cc(-c5ccc(OC)cc5)c34)c(F)c1)c(C)n2C [GDL5000037, 6-ethyl-N-(3-fluoro-4-(5-(4-methoxyphenyl)-7H-pyrrolo[2,3-d]pyrimidin-4-yloxy)phenyl)-1,2-dimethyl-4-oxo-1,4-dihydroquinoline-3-carboxamide]
52.7	55.9	63.8	67.8	82.3	88.7											72		CCc1ccc2c(c1)c(=O)c(C(=O)Nc1ccc(Oc3ccnc(N)c3Cl)c(F)c1)c(C)n2C [GDL5000059, N-(4-((2-amino-3-chloropyridin-4-yl)oxy)-3-fluorophenyl)-6-ethyl-1,2-dimethyl-4-oxo-1,4-dihydroquinoline-3-carboxamide]
